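Compound exposure: 48 hours, 5 concentrations, 96-well plates. GI50 marks 50% less growth. TGI: total growth inhibition.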
Columns and labels:
Experiment in all cases: growth of human tumour cells (NCI), 48 h
786-0 renal = tested on: 786-0 renal
DU-145 prostate = tested on: DU-145 prostate
HCT-116 colon = tested on: HCT-116 colon
HOP-92 NSCLC = tested on: HOP-92 NSCLC
IGROV1 ovarian = tested on: IGROV1 ovarian
MALME-3M melanoma = tested on: MALME-3M melanoma
OVCAR-8 ovarian = tested on: OVCAR-8 ovarian
SF-295 CNS = tested on: SF-295 CNS
SR leukemia = tested on: SR leukemia
U251 CNS = tested on: U251 CNS

| Structure (SMILES) | GI50 (786-0 renal) [µM] | TGI (786-0 renal) [µM] | GI50 (DU-145 prostate) [µM] | TGI (DU-145 prostate) [µM] | GI50 (HCT-116 colon) [µM] | TGI (HCT-116 colon) [µM] | GI50 (HOP-92 NSCLC) [µM] | TGI (HOP-92 NSCLC) [µM] | GI50 (IGROV1 ovarian) [µM] | TGI (IGROV1 ovarian) [µM] | GI50 (MALME-3M melanoma) [µM] | TGI (MALME-3M melanoma) [µM] | GI50 (OVCAR-8 ovarian) [µM] | TGI (OVCAR-8 ovarian) [µM] | GI50 (SF-295 CNS) [µM] | TGI (SF-295 CNS) [µM] | GI50 (SR leukemia) [µM] | TGI (SR leukemia) [µM] | GI50 (U251 CNS) [µM] | TGI (U251 CNS) [µM] |
| --- | --- | --- | --- | --- | --- | --- | --- | --- | --- | --- | --- | --- | --- | --- | --- | --- | --- | --- | --- | --- |
| Cc1cccc(Cc2cnc(NC(=O)/C=C/c3ccco3)s2)c1 | 0.0598 | > 100 | 0.0382 | > 100 | 0.0425 | > 100 | 8.5 | > 100 | 0.0712 | > 100 | 0.0484 | > 100 | 0.0535 | > 100 | 0.0437 | > 100 | 0.0342 | > 100 | 0.0396 | > 100 |
| c1ccc2c(Nc3ccc4c(c3)OCO4)c3ccoc3nc2c1 | 17.3 | 40.3 | 14 | 31.2 | 14.7 | 37.3 | 12.7 | 43.3 | 31.5 | > 100 | 15.9 | 34.3 | 12.6 | 46.4 | 14.7 | 34.3 | 3.98 | 29.3 | 17.6 | 41.3 |
| CCN(CC)c1ccc(/C=C2/NC(=O)NC2=O)cc1 | 10.9 | > 100 | 5.7 | 32.6 | 3.65 | > 100 | 9.01 | > 93.1 | 4.82 | > 27.6 | 16 | > 100 | 14.7 | > 100 | 4.36 | > 32.7 | 0.605 | > 100 | 6.05 | > 100 |
| Cn1cc(C2=C(c3cn(C)c4cc(Cl)ccc34)C(=O)NC2=O)c2ccccc21 | 0.203 | > 20.8 | 0.119 |  | 0.113 | > 20.6 | 0.146 | > 23 | 0.24 | > 13.2 | 0.0878 | 6.99 | 0.117 | > 25 | 0.093 | > 25 | 0.073 | 6.38 | 0.0988 | > 25 |
| c1ccc(-c2nn(-c3ccccc3)[n+](-c3ccccc3-c3ccccc3)n2)cc1 | 2.96 | 21.2 | 3.11 | > 71.7 | 0.699 | > 33.3 | 0.775 | 5.48 | 0.868 | 16.3 | 0.248 | 1.53 | 0.757 | 12.5 | 1.94 | 8.99 | 1.22 | 10.9 | 0.533 | 61.8 |
| CCn1c(-c2nonc2N)nc2c(C#CC(C)(C)O)ncc(OCC3CCNCC3)c21 | 6.11 | 24.6 | 8.15 | > 25 | 6.67 | > 20.9 | > 25 | > 25 | 1.34 | > 25 | > 25 | > 25 | 9.68 | > 25 | 5.29 | > 25 | 8.08 | 24.4 | 3.99 | > 25 |
| O=C(O)c1ccccc1/C=C1/Nc2ccccc2C1=O |  | > 100 |  | > 100 |  | > 100 |  | > 100 |  | > 100 |  | > 100 |  | > 100 |  | > 100 |  | > 100 |  | > 100 |
| O=C(CN1CCN(c2cc3c(cc2F)c(=O)c(C(=O)O)cn3C2CC2)CC1)Nc1ccc(C(=O)/C=C/c2ccccc2)cc1 | 4.5 | > 100 | 3.74 | > 100 | 0.659 | 2.68 | 0.431 | 3.82 | 3.67 | > 100 | 2.89 | 8.87 | 3.07 | > 100 | 2.11 | 6.25 | 1.54 | 6.1 | 2.92 | > 100 |
| CCOC(=O)Nc1ccc2nc(Sc3ccc(Cl)cc3)sc2c1 | 8.12 | 40.3 | 4.33 | > 48.5 | 1.19 | 39.3 | 7.98 | 65.4 | 5.09 | > 100 | 5.7 | 37.1 | 7.72 | 70.4 | 2.19 | 33.9 | 0.358 | > 32.9 | 3.15 | 44.6 |
| O=C(Nc1ccc(Oc2cccc(Cl)c2)c(Cl)c1)c1cccnc1 | 2.69 | 11.6 | 2.15 | 36 | 2.11 | > 50 | 2.73 | 22.1 | 2.76 | > 50 | 3.16 | 32.8 | 2.85 | 33.9 | 1.33 | 16 | 0.395 | > 50 | 2.23 | 18 |
| Nc1cc2ccncc2c2ccccc12 | 23.3 | > 100 | 13.2 | > 100 | 4.85 | > 100 | 19.6 | 68.9 | 11.9 | > 100 | 15.7 | 31.4 | 5.25 | > 100 | 10.8 | 57.4 | 8.56 | 47.9 | 21 | > 100 |
| NS(=O)(=O)c1ccc(N=Nc2cc3ccccc3c(C(=O)O)c2O)cc1 |  | > 100 |  | > 100 |  | > 100 |  | > 100 |  | > 100 |  | > 82 |  | > 100 |  | > 100 |  | > 84.6 |  | > 95.2 |
| CN(C)CC1CCCCCCCCCCC1=O (stereo unspecified) | > 100 | > 100 | > 100 | > 100 | > 100 | > 100 | > 100 | > 100 |  | > 100 | > 100 | > 100 |  | > 10 |  | > 10 | > 100 | > 100 | > 100 | > 100 |
| COc1ccc2c(c1)/C(=N/OC(C)=O)c1c-2c(Nc2ccc(/C(C)=N/OC(C)=O)cc2)nc2ccccc12 | > 100 | > 100 | 43.2 | > 100 | 35 | > 100 | 70.1 | > 100 | 71.6 | > 100 | 56.8 | > 100 | 63.3 | > 100 | > 100 | > 100 | 87.6 | > 100 | 96.8 | > 100 |
| C=C(C)[C@@H]1CC[C@@H]2C(=CC[C@]3(C)C([C@H](C)CC/C=C(/C)C(=O)O)CC[C@@]23C)[C@@]1(C)CCC(=O)O (stereo partly specified) |  | 43.9 |  | 60.5 |  | 43.7 |  | 43 |  | 88.8 |  | 61 |  | > 100 |  | > 100 |  | 49.4 |  | 70 |
| Cn1ccnc1C(=O)/C=C/c1ccc(CC(=O)Nc2cc(F)c(F)c(F)c2)cc1 | 2.44 | 5.5 | 1.67 | 4.87 | 1.22 | 4.42 | 2.59 | 7.44 | 1.4 | 8.22 | 3.65 | 10.8 | 1.33 | > 25 | 6.63 | > 25 | 0.861 | 8.91 | 0.837 | 3.2 |
| O=C(Nc1ccc(I)cc1F)c1cc(F)ccc1O | 2.19 | 6.67 | 0.655 | > 100 | 0.352 | 1.46 | 0.169 | 0.504 | 0.404 | > 100 | 0.315 | 1.53 | 1.07 | 48.7 | 1.86 | 3.74 | 0.413 | > 35.7 | 0.578 | > 100 |
| O=C(O)CNCc1c2ccccc2nc2ccccc12 |  | > 95.4 |  | > 100 |  | > 45.5 |  | 85.4 |  | > 100 |  | > 100 |  | > 100 |  | > 100 |  | > 70.5 |  | > 100 |
| CCc1cc(Nc2nccc(-c3c(-c4ccc(OC)c(C(=O)Nc5c(F)cccc5F)c4)nc4ccccn34)n2)c(OC)cc1N1CCC(N2CCN(S(C)(=O)=O)CC2)CC1 | > 100 | > 100 | > 100 | > 100 | 88.8 | > 100 | 1.14 | > 80 | > 100 | > 100 | > 100 | > 100 | > 100 | > 100 | > 100 | > 100 | > 100 | > 100 | > 100 | > 100 |
| CC[C@@]1(O)C(=O)N(CCN(C)C)Cc2c1cc1n(c2=O)Cc2cc3ccccc3nc2-1 | 8.09 | > 100 | 4.64 | > 100 | 12.4 | > 100 | > 25.9 | > 100 | 26 | > 100 | > 100 | > 100 | 12.5 | > 100 | 5.63 | > 100 | 6.24 | > 100 | 18.9 | > 100 |
| Cc1cncc2cccc(S(=O)(=O)N3CCCNC[C@@H]3C)c12 | 14.6 | > 100 | 36.1 | > 100 | 7.56 | > 100 | 0.108 | > 100 | 48.8 | > 100 | 99.5 | > 100 | 38.9 | > 100 | 4.46 | > 100 | 3.55 | > 91.2 | 57.2 | > 100 |
| COc1ccc(C2C3=C(COC3=O)N(CCO)c3cc4c(cc32)CCC4)cc1OC (stereo unspecified) | 5.56 | > 50 | 0.574 | 2.13 | 0.524 | > 50 | > 50 | > 50 | 0.274 | > 42.7 | 0.291 | > 50 | 1.74 | > 50 | 0.171 | 1.31 | 0.253 | > 50 | 1.15 | > 50 |
| CCN(Cc1cccc(C)c1)c1ccc(CO)c(Cl)c1 | 10.8 | 23.5 | 14.8 | 28.9 | 0.203 | 10.7 | 2.16 | 13.5 | 0.152 | 1.18 | 15.7 | 33.4 | 12.3 | 28.3 | 1.51 | 16.4 | 21.6 | > 62 | 2.27 | 16.8 |
| CCN(CC)CCn1nc2c3c(cccc3c1=O)-c1ccccc1-2 | 2.44 | 48.8 | 2.11 | > 50 | 1.78 | > 50 | 3.11 | 24.9 | 2.06 | > 50 | 1.67 | 7.37 | 2.23 | > 50 | 1.39 | 7.45 | 0.896 | 8.98 | 2.18 | 24.7 |
| C/C(=C\COc1ccc2ccc(=O)oc2c1)CCC(=O)C(C)(C)O |  | 43.3 |  | > 100 |  | 32.2 |  | 64.5 |  | > 100 |  | > 100 |  | 76.3 |  | > 100 |  | 47.4 |  | 47.4 |
| CN1CCN(Cc2ccc(NC(=O)c3cncc(C#Cc4cncc5[nH]ncc45)c3)cc2C(F)(F)F)CC1 | 1.8 | 6.35 | 1.36 | 6.45 | 0.215 | 2.34 | 0.156 | 1.26 | 0.454 | 1.45 | 0.0987 | 0.383 | 1.5 | 6.73 | 1.73 | 7.4 | 1.04 | 10.7 | 1.53 | 7.76 |
| O=[N+]([O-])C1(CO)COC2(OC1)c1ccccc1-c1ccccc12 |  | > 74.8 |  | > 100 |  | 88.7 |  | > 95.7 |  | > 100 |  | 73.9 |  | > 100 |  | > 100 |  | 82.1 |  | > 100 |

Reference: PubChem BioAssay (NCI)
